Literature values in US20240315972A1, “PROTEIN CONTAINING BIO-ACTIVE COMPOSITIONS COMPRISING CELLULOSE MICROPARTICLE CARRIERS” (priority 2021, published 2024).

How the values were obtained:
[1] = tested on: herpes simplex virus type 1 (HSV-1); conditions: in vitro
[2] = tested on: large native proteins; conditions: versus its mesophilic analogue
[3] = tested on: interferon (IFN) signaling; conditions: 5 BAEE U/mL (4.5 μg/mL porcine trypsin)
[4] = tested on: respiratory syncytial virus (RSV); conditions: in vitro

Question: Which results are given for Trypsin?
Answer: Efficacy against HSV-1 [1]: high efficacy; Effectiveness in degrading large native proteins relative to mesophilic analogue [2]: 3-12 times; Effect on interferon (IFN) signaling [3]: strongly inhibited; Efficacy against RSV [4]: high efficacy
